Reference: article PMC9343461, “Molecular and in vivo studies of a glutamate-class prolyl-endopeptidase for coeliac disease therapy” (Nature Communications, 2022)
Where two headings read alike, the source gives them in different places. Each block holds one molecule with its values, some of them ahead of it. Square brackets hold non-standard residues; d marks the D form. Peptide text beside a SMILES is read from it. * marks the point of attachment. Sta = CC(C)C[C@H](N)[C@@H](O)CC(=O)O; Isovaleryl = CC(C)CC(=O)*

Assays:
[1] = molecular target: T1, neprosin (mature catalytic domain, recombinant) (Nepenthes ventricosa x Nepenthes alata, UniProt C0HLV2); test: fluorogenic peptide cleavage (FS6-QPQL), inhibition curve; type: biochemical
T1 construct: Mature catalytic domain S129-Q380 from autolysis of pro-neprosin at P128-S129 (pro-domain R25-P128 removed); C-terminal Ala-Ile-Ala plus His6 tag kept; expressed in human Expi293F cells; glycosylated at N145 and N152; monomer

[2] = molecular target: T2, mature neprosin (catalytic domain, S129-Q380) with C-terminal His6 tag (Nepenthes x ventrata, UniProt C0HLV2 129-380, N-linked glycans at N145 and N152); test: crystal structure; orthorhombic crystals of pro-neprosin (native and Lu-Xo4 derivative), polypeptide cleaved at P128-S129; protein in 20 mM Tris-HCl pH 7.5, 150 mM NaCl; reservoir 0.1 M sodium acetate pH 4.0, 22% PEG 6000, 10% isopropanol, 20 °C; conditions: both partners purified
T2 construct: neprosin from Nepenthes x ventrata, UniProt C0HLV2, catalytic domain S129-Q380 released by cleavage at P128-S129; C-terminal purification tag, numbered A401-I402-A403 + H404-H409; written as a part because it lies in the active-site cleft of a symmetry mate; also called neprosin CD; mature enzyme; source: human Expi293F cells; pro-neprosin purified (Ni-NTA), autolysis at pH 2.5, then SEC; in the …
T2 sequence: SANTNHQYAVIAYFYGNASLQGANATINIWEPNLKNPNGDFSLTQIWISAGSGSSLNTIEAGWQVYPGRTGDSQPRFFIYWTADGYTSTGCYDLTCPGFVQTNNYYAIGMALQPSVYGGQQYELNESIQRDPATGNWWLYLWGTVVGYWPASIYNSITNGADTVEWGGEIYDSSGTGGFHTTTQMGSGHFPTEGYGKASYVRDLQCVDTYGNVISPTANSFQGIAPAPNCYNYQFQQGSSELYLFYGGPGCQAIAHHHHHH

IC50 [1]: 480 µM
Molecule: O=[N+]([O-])c1ccc(OCC2CO2)cc1 (stereo not drawn) [EPNP, 2-[(4-nitrophenoxy)methyl]oxirane]

IC50 ([1]; 50 nM neprosin, 10 μM FS6-QPQL, 100 mM glycine pH 3.0, 37 °C, pre-incubated >1 h (pre-incubation stated for the inhibitor screen)): 140 µM
Molecule: CC(C)CC(=O)N[C@H](C(=O)N[C@H](C(=O)N[C@@H](CC(C)C)[C@@H](O)CC(=O)N[C@@H](C)C(=O)N[C@@H](CC(C)C)[C@@H](O)CC(=O)O)C(C)C)C(C)C [pepstatin A] (Isovaleryl-VV[Sta]A[Sta]-OH)

binding result [2]: binds
B1: neprosin pro-domain (PD, R25-P128) (domain or fragment, Nepenthes x ventrata, UniProt C0HLV2 25-128, looked up)
chain: RSIQARLANKPKGTIKTIKGDDGEVVDCVDIYKQPAFDHPLLKNHTLQMQPSSYASKVGEYNKLEQPWHKNGECPKGSIPIRRQVITGLPVVKKQFPNLKFAPP
notes: neprosin from Nepenthes x ventrata, UniProt C0HLV2, N-terminal pro-domain R25-P128: globular part A29-G112 and linker L113-P128; Defined in the map from A29 onwards; Y77-N86 and N122 onwards are disordered; also called cleaved PD; source: human Expi293F cells; pro-neprosin purified (Ni-NTA, SEC), found cleaved at P128-S129 in the crystals
